The structures appear in SMILES notation.

A short description of this data set: gradient 5% acetonitrile 3 min, to 50% in 2 min, to 85% in 15 min, held 3 min, 100 µL/min. The conditions noted are these: column: Zorbax Extend-C18 2.1 x 50 mm; eluents: water / acetonitrile, 0.1% formic acid. An outline of the steps:
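Pure standards were run in mixtures of ~100 molecules by HPLC coupled to a quadrupole time-of-flight mass spectrometer. The column was a Zorbax Extend-C18 (2.1 × 50 mm, 1.8 μm) at 100 μL/min, with water and acetonitrile each containing 0.1% formic acid, in positive and negative ionization mode. Dead and dwell volumes were 40 μL and 900 μL. Retention time was taken from computationally picked adduct peaks, each manually inspected, with data collected over 3 months.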
`CCOc1ccc(-c2cc(=O)n(CCCC(=O)Nc3ccc(-n4cnnn4)cc3)cn2)cc1` yielded an RP-LC retention time of 696 s.
`O=C(Nc1ccc(-c2nc(-c3ccc(F)cc3)no2)cc1)c1cccs1`: the RP-LC retention time came to 1170 s.
Next, `CCCNc1cc(N2CCC(CCC(=O)NCCc3ccccn3)CC2)ncn1`: 557 s; `O=C(NCc1cccnc1)C(CCO)Sc1nc2sc3c(c2c(=O)[nH]1)CCCC3` (stereo not drawn): 544 s.
To `CN1CC(=O)N(CC(=O)Nc2cccc(C#N)c2)c2ccccc2C1=O` belongs 653 s; to `Cc1ccc(Nc2cc(N3CCN(C(=O)COc4ncccn4)CC3)nc(C)n2)cc1`, 563 s; to `Cc1[nH]c2ccccc2c1C(=O)C(=O)NC1CCCCC1`, 798 s.
As for `CCCN1C(=O)c2cc(S(=O)(=O)N3CCCCC3C)ccc2Oc2cccnc21` (stereo not drawn), the RP-LC retention time was determined as 1170 s.
Next, `Cc1nc(-c2noc(-c3ccncc3)n2)cn1CC(=O)Nc1cccc(F)c1`: 833 s; `COc1ccc(C(=O)Nc2ccc3c(c2)Sc2ncccc2C(=O)N3C(C)C)cc1F`: 894 s.
To `CCCNC(=O)N1CCCC(C)(C(=O)NCc2ccc(C)cc2)C1` (stereo not drawn) belongs 799 s; to `COc1cc([N+](=O)[O-])ccc1NC(=O)c1ccccc1S(C)(=O)=O`, 749 s; to `COc1ccc(CCNS(=O)(=O)c2cccc3cccnc23)cc1OC`, 745 s.
Next, `Cc1nn(C)c(C)c1S(=O)(=O)NCCc1noc(-c2cccnc2)n1`: 643 s; `Cc1ccc(-c2csc(NC(=O)CN3CCN(Cc4ccc5c(c4)OCO5)CC3)n2)cc1`: 737 s; `Cc1ccc(NC(=O)C2CC(=O)N(c3n[nH]c4ccccc34)C2)nc1` (stereo not drawn): 594 s.
Molecule `Cc1nc(-c2cc(S(=O)(=O)N3CCCc4ccccc43)c(C)s2)sc1C` came in with an RP-LC retention time of 1290 s.
Next, `Cc1cc2nn(CC(=O)NCc3ccc4c(c3)OCO4)c(=O)n2c(-c2ccccc2)n1`: 600 s.
To `Cc1ccc(NC(=O)c2cn(-c3cc(N(C)C)ncn3)cn2)cc1F` belongs 884 s; to `CCN(CC)c1ccc(C(=O)N2CCC(c3cc(N)on3)CC2)cc1`, 605 s; to `CCN1c2cc(C(=O)NCc3ccc(SC)cc3)ccc2C(=O)N2CCCCC21` (stereo not drawn), 856 s.
Next, `Cc1cc(NCC(=O)NC2CCCCC2)n2nc(-c3cccnc3)nc2n1`: 646 s; `CCC(=O)N1CCc2cc(N3CC(C(=O)NCc4cccs4)CC3=O)ccc21` (stereo not drawn): 695 s; `COc1ccc(NS(=O)(=O)c2cn(CC(C)C)c3ncccc23)cc1Cl`: 950 s.
As to `O=C(CN1C(=O)CCCc2cc(S(=O)(=O)N3CCCCC3)ccc21)N1CCCCC1`, the RP-LC retention time was determined as 819 s.
Turning to `Cc1ccc(CNS(=O)(=O)c2c(-c3nnc(C)o3)c(C)n(C)c2C)o1`, the RP-LC retention time came to 780 s.
`Cc1ccccc1-c1noc(-c2cccnc2N2CCN(C)CC2)n1`: the RP-LC retention time was 670 s.
Next, `CSc1cccc(NC(=O)NC2CCN(c3ccc(C)c(C)c3)C2=O)c1` (stereo not drawn): 929 s; `Cn1c(=O)c2ccnn2c2ccc(C(=O)NCc3ccccc3)cc21`: 665 s; `CCNC(=O)[C@H]1O[C@@H](n2cnc3c(N)ncnc32)C(O)[C@H]1O` (stereo partly drawn): 555 s.
Next, `CCOC(=O)c1c(C)[nH]c(C(=O)N2CCCC(C(=O)NC3CCCCCC3)C2)c1C` (stereo not drawn): 892 s; `Cc1ccc(CN2CC(Oc3ccc(-c4noc(C5CCOCC5)n4)cc3)C2)o1`: 686 s; `COC(=O)C1=C(C)N(C(C)C)C(=O)C1(NC(=O)c1ccccc1OC)C(F)(F)F` (stereo not drawn): 1010 s.
Molecule `COc1ccc(N2CCN(c3ncc(C(=O)O)c(C(C)C)n3)CC2)cc1` displayed an RP-LC retention time of 865 s.
To `COCC(=O)N1CCc2c([nH]c3ccccc23)C1c1ccc(C)cc1` (stereo not drawn) belongs 971 s; to `CCn1nc(C(=O)Nc2nc3c(SC)cccc3s2)cc1C`, 994 s; to `COc1cc(OC)c(NC(=O)NCC2(N3CCOCC3)CCOC2)cc1Cl` (stereo not drawn), 612 s.
As to `Cc1ccccc1C(=O)N1CCN(S(=O)(=O)c2cc3c4c(c2)CCC(=O)N4CCC3)CC1`, the RP-LC retention time came to 785 s.
Take `NC[C@@H]1O[C@H](c2ccccc2)Cc2c1ccc(O)c2O`: the RP-LC retention time turned out to be 662 s.
To `O=C(COc1ccc(Cl)cc1Cl)Nc1c(-c2ccccc2)nc2ccccn12` belongs 738 s; to `O=C(NCc1cccc(Cl)c1)C1CCCN(c2nc3cccnc3n(Cc3ccccc3)c2=O)C1` (stereo not drawn), 1190 s; to `CCc1cccc(NC(=O)C2CCCN(S(=O)(=O)c3cn(C(C)C)cn3)C2)c1` (stereo not drawn), 893 s.
The molecule `CCOC(=O)C1CCN(C(=O)Cn2nc3c(N4CCCCCC4)nccn3c2=O)CC1` yielded an RP-LC retention time of 652 s.
`Cc1ccc(CNC(=O)Cn2c(C)nc3onc(C)c3c2=O)cc1` gave an RP-LC retention time of 764 s.
To `CC(NC(=O)C1CCN(c2cnn(Cc3ccccc3)c(=O)c2)CC1)c1cccs1` (stereo not drawn) belongs 789 s; to `COc1ccc(OC)c(-c2cc(C(=O)Nc3ccc4c(c3)CCC(=O)N4)[nH]n2)c1`, 681 s.
To `CCc1nc(-c2cc(S(=O)(=O)N3CCC(C(=O)N(CC)CC)CC3)c(C)s2)no1` belongs 960 s.
`Cc1csc(NC(=O)C2CCCN(S(=O)(=O)c3c[nH]c(C(=O)N4CCCC4)c3)C2)n1` (stereo not drawn) had an RP-LC retention time of 714 s.
To `CC(=O)Nc1ccc(-n2c(C)nc3ccccc3c2=O)cc1C` belongs 621 s; to `Cc1nc(C(=O)Nc2cc(F)ccc2F)c(C)o1`, 998 s.
To `CCCN1CCN(S(=O)(=O)c2cc(-c3cc(C(F)(F)F)[nH]n3)sc2C)CC1` belongs 707 s; to `CCOc1ccc(NC(=O)N2CCN(c3cc(C)nc(Nc4ccc(C)cc4)n3)CC2)cc1`, 727 s; to `CC1(C)C(=O)N(CC(=O)N2CCN(c3ccccn3)CC2)c2ccccc21`, 600 s.
Next, `CCCc1cc(N2CCN(C(=O)C3CCC3)CC2)nc2nnc(C)n12`: 614 s.
`Cc1cccc(CN2CCn3c(nnc3[C@@H]3C[C@@H](O)CN3Cc3ccccc3)C2)c1` came in with an RP-LC retention time of 650 s.
The molecule `Cc1cnn(Cc2nc(-c3ccc(NC(=O)c4ccco4)cc3)oc2C)c1` gave an RP-LC retention time of 806 s.
Consider `CC(C)C(NC(=O)c1ccco1)c1nc(-c2ccc3c(c2)ncn3C)no1` (stereo not drawn), for which the RP-LC retention time is 650 s.
Next, `COCC(=O)N(CC(=O)N1CCc2sccc2C1COc1ccc(Cl)cc1)C(C)C` (stereo not drawn): 909 s; `Cc1ccc(NS(=O)(=O)c2cc(-c3[nH]ncc3C(=O)N(C)C)oc2C)c(F)c1`: 678 s; `Cc1noc(C)c1CCNC(=O)CCCn1c2ccccc2c2cnn(C)c(=O)c21`: 713 s.
Next, `CCOc1ccc(-c2ccc(=O)n(Cc3nc(-c4ccc(OC(C)C)cc4)no3)n2)cc1`: 826 s.
Turning to `NC(=O)C1CCN(C(=O)c2cccc(NC(=O)c3nsc4ccccc34)c2)CC1`, the RP-LC retention time worked out at 703 s.
Next, `CCOC(=O)c1c(C)[nH]c(C(=O)N2CCCC(C(=O)NCCc3c[nH]c4ccccc34)C2)c1C` (stereo not drawn): 808 s; `Cc1ccc(CNC(=O)C2CCCCC(=O)N2C)o1` (stereo not drawn): 644 s.
Consider `COc1ccc(S(=O)(=O)N2CCCC(c3nn[nH]n3)C2)cc1` (stereo not drawn), for which the RP-LC retention time was 714 s.
To `CN1CCN(c2ncncc2N2CCC(C(=O)N3CCN(c4ccccc4)CC3)CC2)CC1` belongs 570 s.
Molecule `CCN(CC)c1ccc(NC(=O)c2cccs2)cc1C(=O)O` returned an RP-LC retention time of 626 s.
To `c1ccc(C(NCCNC(c2ccccc2)c2ccccc2)c2ccccc2)cc1` belongs 849 s; to `COc1ccc(NC(=O)c2ccc(-c3ccc(-c4noc(C)n4)cc3C)cc2)cc1N1CCN(C)CC1`, 812 s; to `CC(=O)N1c2ccc(S(=O)(=O)N3CCCC3)cc2CC1C(=O)Nc1c(C)cc(C)cc1C` (stereo not drawn), 876 s.
Next, `O=C(c1cc(-c2ccc(Br)cc2)n[nH]1)N1CCN(c2ccc(N3CCOCC3)nn2)CC1`: 649 s; `COc1ccc(-c2cn3c(CC(=O)Nc4ccc(C(F)(F)F)cc4)csc3n2)cc1`: 869 s.
Next, `CS(=O)(=O)N1CCCc2cc(C(=O)NCCCn3ccnc3)ccc21`: 597 s; `Cc1ccc(-c2nnc(-c3nn(C)c4c3CN(S(=O)(=O)c3ccc(Cl)s3)CC4)o2)cc1`: 1060 s.
The molecule `CSc1ccc(CCNC(=O)c2nc(N3CCOCC3)c3ccccc3n2)cc1` displayed an RP-LC retention time of 721 s.
To `Cc1ccc(CNC(=O)C2CCN(S(=O)(=O)c3c(C)[nH]c(C)c3C(=O)N3CCCC3)CC2)cc1` belongs 720 s; to `CCCNC(=O)CN1CCN(C(=O)c2sc3ncccc3c2-n2cccc2)CC1`, 620 s.
As to `Cc1nc(C2(C)CCN(S(=O)(=O)c3cc(C)c(C)cc3C)CC2)no1`, the RP-LC retention time was 1070 s.

Values taken from the METLIN SMRT retention time set (Domingo-Almenara et al. 2019).
